Data: patent US20120252741A1, “NOVEL SEMI-SYNTHETIC GLYCOPEPTIDES AS ANTIBACTERIAL AGENTS” (priority 2008, published 2012)
In brackets after ≈: the same amount, converted by molar mass. Like-named read-outs stand apart in the source and are kept apart here.

Columns and labels:
Type in all cases: cell-based
[1] = system: Staphylococcus aureus 757 (MRSA); assay: MIC, broth microdilution, SA 757; conditions: read-out: MIC SA 757
Method: (§1) Antibacterial activity in vitro is investigated by broth microdilution method in Meuller-Hinton broth as recommended by NCCLS. All strains tested are clinical isolates either sensitive or resistant to natural glycopeptides. MIC values were determined using the CLSI-recommended broth microdilution procedure (Clinical and Laboratory Standards Institute, Methods for Dilution Antimicrobial Susceptibility Tests for Bacteria That Grow Aerobically; Approved Standard-Seventh Edition.). Automated liquid handlers (Multidrop 384, Labsystems, Helsinki, Finland; Biomek 2000 and Multimek 96, Beckman Coulter, Fullerton Calif.) were used to conduct serial dilutions and liquid transfers. The MIC value for vancomycin is given for comparison. The abbreviations for organisms tested are as follow: SA 100—Staphylococcus aureus 100 (ATCC 29213); SA 757—Staphylococcus aureus 757 (MRSA); SA 2012—Staphylococcus aureus 2012 (VISA); SE 835—Staphylococcus epidermidis 835; SE 831—Staphylococcus epidermidis 831 (MRSE); EFc 101—Enterococcus faecalis 101 (ATCC 29212); EFc 848—Enterococcus faecalis 848 (VRE, Van A); EFcm 800—Enterococcus faecium 800; EFcm 752—Enterococcus faecium 752 (VRE, Van A); SPNE 1195—Streptococcus pneumoniae 1195 (ATCC 49619); SPY 712—Streptococcus pyogenes 712.

[2] = system: Staphylococcus epidermidis 831 (MRSE); assay: MIC, broth microdilution, SE 831; conditions: Staphylococcus epidermidis, read-out: MIC SE 831
Method: as §1

[3] = system: Enterococcus faecalis 848 (VRE, Van A); assay: MIC, broth microdilution, EFc 848; conditions: VRE, Van A, class symbols, read-out: MIC E FC 848
Method: as §1

[4] = system: Staphylococcus aureus 2012 (VISA); assay: MIC, broth microdilution, SA 2012; conditions: read-out: MIC SA 2012
Method: as §1

[5] = system: Enterococcus faecium 752 (VRE, Van A); assay: MIC, broth microdilution, EFcm 752; conditions: VRE, Van A, class symbols, read-out: MIC E FCM 752
Method: as §1

[6] = system: Staphylococcus epidermidis 835; assay: MIC, broth microdilution, SE 835; conditions: Staphylococcus epidermidis, 835, class symbols, read-out: MIC SE 835
Method: as §1

[7] = system: Streptococcus pneumoniae 1195 (ATCC 49619); assay: MIC, broth microdilution, SPNE 1195; conditions: Streptococcus pneumoniae, ATCC49619, class symbols, read-out: MIC S PNE 1195
Method: as §1

[8] = system: Enterococcus faecalis 101 (ATCC 29212); assay: MIC, broth microdilution, EFc 101; conditions: Enterococcus faecalis, ATCC29212, class symbols, read-out: MIC E FC 101
Method: as §1

[9] = system: Streptococcus pyogenes 712; assay: MIC, broth microdilution, SPY 712; conditions: Streptococcus pyogenes, 712, class symbols, read-out: MIC S PYO 712
Method: as §1

[10] = system: Staphylococcus aureus 100 (ATCC 29213); assay: MIC, broth microdilution, SA 100; conditions: Staphylococcus aureus, ATCC29213, class symbols, read-out: MIC SA 100
Method: as §1

[11] = system: Enterococcus faecium 800; assay: MIC, broth microdilution, EFcm 800; conditions: Enterococcus faecium, 800, class symbols, read-out: MIC E FCM 800
Method: as §1

[12] = Table 2, in the presence of 0.002% Polysorbate 80, class symbols
[13] = Table 2, in the presence of 0.002% Polysorbate 80

Row | SMILES | MIC ([1]; Table 1, class symbols) [mg/L] | MIC ([2]; Table 1, class symbols) [mg/L] | MIC ([3]; Table 1) [mg/L] | MIC ([4]; Table 1, class symbols) [mg/L] | MIC ([5]; Table 1) [mg/L] | MIC ([6]; Table 1) [mg/L] | MIC ([7]; Table 1) [mg/L] | MIC ([8]; Table 1) [mg/L] | MIC ([9]; Table 1) [mg/L] | MIC ([10]; Table 1) [mg/L] | MIC ([11]; Table 1) [mg/L] | MIC [1, 12] [mg/L] | MIC [2, 12] [mg/L] | MIC [3, 13] [mg/L] | MIC [4, 12] [mg/L] | MIC [5, 13] [mg/L] | MIC [6, 13] [mg/L] | MIC [7, 13] [mg/L] | MIC [8, 13] [mg/L] | MIC [9, 13] [mg/L] | also measured
1 | CCCCCCCCCC(=O)NC(=O)C[C@@H]1NC(=O)[C@H](NC(=O)[C@@H](CC(C)C)NC)[C@H](O)c2ccc(c(Cl)c2)Oc2cc3cc(c2O[C@@H]2O[C@H](CO)[C@@H](O)[C@H](O)[C@H]2O[C@H]2C[C@](C)(N)[C@H](O)[C@H](C)O2)Oc2ccc(cc2Cl)[C@@H](O)[C@@H]2NC(=O)[C@H](NC(=O)[C@@H]3NC1=O)c1ccc(O)c(c1)-c1c(O)cc(O)cc1[C@@H](C(=O)NC1C3CC4CC(C3)CC1C4)NC2=O (stereo partly shown) [Compound 43] | 0.5 to 1 (≈ 0.288 to 0.576 µM) | 0.01 to 0.5 (≈ 0.00576 to 0.288 µM) | 1 to 2 (≈ 0.576 to 1.15 µM) | 1 to 2 (≈ 0.576 to 1.15 µM) | 0.01 to 0.5 (≈ 0.00576 to 0.288 µM) | 0.01 to 0.5 (≈ 0.00576 to 0.288 µM) | 0.01 to 0.5 (≈ 0.00576 to 0.288 µM) | 0.01 to 0.5 (≈ 0.00576 to 0.288 µM) | 0.01 to 0.5 (≈ 0.00576 to 0.288 µM) | 0.01 to 0.5 (≈ 0.00576 to 0.288 µM) | 0.01 to 0.5 (≈ 0.00576 to 0.288 µM) |  |  |  |  |  |  |  |  |  | 
2 | CNCCOc1ccc(C(=O)NC(=O)C[C@@H]2NC(=O)[C@H](NC(=O)[C@@H](CC(C)C)NC)[C@H](O)c3ccc(c(Cl)c3)Oc3cc4cc(c3O[C@@H]3O[C@H](CO)[C@@H](O)[C@H](O)[C@H]3O)Oc3ccc(cc3Cl)[C@@H](O)[C@@H]3NC(=O)[C@H](NC(=O)[C@@H]4NC2=O)c2ccc(O)c(c2)-c2c(O)cc(O)cc2[C@@H](C(=O)NC2C4CC5CC(C4)CC2C5)NC3=O)cc1OCCNC (stereo partly shown) [Compound 160] |  |  |  |  |  |  |  |  |  |  |  | 1 to 2 | 0.01 to 0.5 | > 16 | 1 to 2 | 4 to 8 | 0.5 to 1 | 0.5 to 1 | 0.5 to 1 | 0.01 to 0.5 | MIC [10, 13]: 1 to 2 mg/L; MIC [11, 13]: 0.01 to 0.5 mg/L
3 | CCCCOc1ccc(S(=O)(=O)NC(=O)C[C@@H]2NC(=O)[C@H](NC(=O)[C@@H](CC(C)C)NC)[C@H](O)c3ccc(c(Cl)c3)Oc3cc4cc(c3O[C@@H]3O[C@H](CO)[C@@H](O)[C@H](O)[C@H]3O)Oc3ccc(cc3Cl)[C@@H](O)[C@@H]3NC(=O)[C@H](NC(=O)[C@@H]4NC2=O)c2ccc(O)c(c2)-c2c(O)cc(O)cc2[C@@H](C(=O)NC2C4CC5CC(C4)CC2C5)NC3=O)cc1 (stereo partly shown) [Compound 117] | 0.01 to 0.5 (≈ 0.00605 to 0.303 µM) | 0.01 to 0.5 (≈ 0.00605 to 0.303 µM) | 2 to 4 (≈ 1.21 to 2.42 µM) | 2 to 4 (≈ 1.21 to 2.42 µM) | 1 to 2 (≈ 0.605 to 1.21 µM) | 0.01 to 0.5 (≈ 0.00605 to 0.303 µM) | 0.01 to 0.5 (≈ 0.00605 to 0.303 µM) | 0.01 to 0.5 (≈ 0.00605 to 0.303 µM) | 0.01 to 0.5 (≈ 0.00605 to 0.303 µM) | 0.01 to 0.5 (≈ 0.00605 to 0.303 µM) | 0.01 to 0.5 (≈ 0.00605 to 0.303 µM) |  |  |  |  |  |  |  |  |  | 
4 | CNCCOc1ccc(C(=O)NC(=O)C[C@@H]2NC(=O)[C@H](NC(=O)[C@@H](CC(C)C)NC)[C@H](O)c3ccc(c(Cl)c3)Oc3cc4cc(c3O[C@@H]3O[C@H](CO)[C@@H](O)[C@H](O)[C@H]3O[C@H]3C[C@](C)(N)[C@H](O)[C@H](C)O3)Oc3ccc(cc3Cl)[C@@H](O)[C@@H]3NC(=O)[C@H](NC(=O)[C@@H]4NC2=O)c2ccc(O)c(c2)-c2c(O)cc(O)cc2[C@@H](C(=O)NC2C4CC5CC(C4)CC2C5)NC3=O)cc1OCCNC (stereo partly shown) [Compound 152] |  |  |  |  |  |  |  |  |  |  |  | 0.01 to 0.5 | 0.01 to 0.5 | > 16 | 1 to 2 | 4 to 8 | 0.01 to 0.5 | 0.01 to 0.5 | 0.01 to 0.5 | 0.01 to 0.5 | MIC [10, 13]: 0.01 to 0.5 mg/L; MIC [11, 13]: 0.01 to 0.5 mg/L
5 | CN[C@H](CC(C)C)C(=O)N[C@H]1C(=O)N[C@@H](CC(=O)NS(=O)(=O)c2ccc(OCCOC)cc2)C(=O)N[C@H]2C(=O)N[C@H]3C(=O)N[C@H](C(=O)N[C@H](C(=O)NC4C5CC6CC(C5)CC4C6)c4cc(O)cc(O)c4-c4cc3ccc4O)[C@H](O)c3ccc(c(Cl)c3)Oc3cc2cc(c3O[C@@H]2O[C@H](CN)[C@@H](O)[C@H](O)[C@H]2O)Oc2ccc(cc2Cl)[C@H]1O (stereo partly shown) [Compound 101] | 0.01 to 0.5 (≈ 0.00605 to 0.303 µM) | 0.01 to 0.5 (≈ 0.00605 to 0.303 µM) | 1 to 2 (≈ 0.605 to 1.21 µM) | 0.01 to 0.5 (≈ 0.00605 to 0.303 µM) | 0.01 to 0.5 (≈ 0.00605 to 0.303 µM) | 0.01 to 0.5 (≈ 0.00605 to 0.303 µM) | 0.01 to 0.5 (≈ 0.00605 to 0.303 µM) | 0.01 to 0.5 (≈ 0.00605 to 0.303 µM) | 0.01 to 0.5 (≈ 0.00605 to 0.303 µM) | 0.01 to 0.5 (≈ 0.00605 to 0.303 µM) | 0.01 to 0.5 (≈ 0.00605 to 0.303 µM) |  |  |  |  |  |  |  |  |  | 
